Test results taken from US4661516A, “Diaminocyclohexane platinum complexes” (Research Corporation, priority 1984, dated 1987).
Several values for one entry are separate records, joined by “and”; a condition that tells them apart may be missing. Equal entries are not always repeated.

How the values were obtained:
[1] = test system: L1210/0 leukemia cells; experiment: In vivo anti-tumor activity, L1210 (L1210/0), multiple i.p. doses; parameters: species or system BDF1 mice; conditions: for Maximal Effective Dose: i.p. on days 1, 5 and 9
Description: BDF1 mice were inoculated intraperitoneally with 10^6 L1210 cells. About 24 hours after inoculation of the cells, the mice were injected intraperitoneally with varying dosages of complexes of the present invention. Six mice were used for each dosage level in each experiment with an equal number of control mice inoculated with 10^6 L1210 cells and left untreated with a given complex. The results [%T/C=(survival time of treated animals/survival time of control animals)×100] are set forth below. Long term survival signifies that animals were alive 60 days after inoculation with L1210 cells.
The procedure of Example 16 was repeated except that the treated animals were injected with multiple doses of the complex as indicated below:
The anti-tumor activity of compound number 3 was evaluated against cells sensitive to (L1210/0) and resistant to (L1210/PDD) the standard platinum complex cis-diamminedichloroplatinum(II).
The following complexes were tested in vivo oncolytic activity following 3 i.p. injections (days 1, 5, 9) according to the protocol described in Examples 16 and 17.
BDF1 mice were innoculated intraperitoreally with 10^6 L1210 leukemia cells and treatment was begun on the next day (day 1). Two treatment schedules, i.e. single i.p. injection of the drug and i.p. injections on days 1, 5 and 9 according to the protocol described in Examples 16 and 17 were used.

[2] = test system: L1210 cells; experiment: In vivo anti-tumor activity, L1210, single i.p. injection; parameters: species or system BDF1 mice
Description: About 24 hours after inoculation of the cells, the mice were injected intraperitoneally with varying dosages of complexes of the present invention. […] Long term survival signifies that animals were alive 60 days after inoculation with L1210 cells.

[3] = test system: Wild type L1210 leukemic cells; experiment: In vitro cytotoxicity, wild type L1210 leukemic cells (L1210/0); assay type: cell-based; conditions: for ID50: L1210, 72 hours incubation
Description: Four ml of cell suspension (10^5 cells/ml) are added to culture tubes and the appropriate concentration (0.01, 0.1, 1 or 10 μg/ml final concentration) of drug added to the culture tubes. After 72 hours of incubation, the cell concentration of control and experimental cultures are determined with the aid of a Coulter Counter® Model ZBf and the percent inhibition calculated. […]

[4] = test system: L1210 leukemia cells (L1210/PDD); experiment: In vitro cytotoxicity / cross-resistance, L1210/PDD (L1210/DDP) cells resistant to cisdiamminedichloroplatinum(II); assay type: cell-based; conditions: for ID50 L1210/DDP: Tables VII and VIII, 5760 min; for ID50 L1210/PDD: 96 hours
Description: Four ml of cell suspension were added to culture tubes and the appropriate concentration (0.01, 0.1, 1 or 10 μg/ml final drug concentration) was added. After 96 hours the cell concentration of control and experimental cultures were calculated with the aid of a Coulter Counter® Model ZBf and the percent inhibition calculated.

[5] = test system: Male albino mice; experiment: Acute toxicity, single intraperitoneal injection (Example 19); assay type: in vivo; conditions: single i.p.; for Calculated LD10 / Calculated LD50 / Calculated LD90: 14 days
Description: Fourteen days after treatment all surviving mice were sacrified and the LD10, LD50 and LD90 were calculated.

[6] = test system: B16 cells; experiment: Melanotic melanoma test, i.p. inoculated B16 melanoma; assay type: in vivo, BDF1 mice; conditions: for Maximal Effective Dose: B16, i.p. days 1, 5 and 9; for % T/C / Long Term Survivors: B16, i.p. days 1, 5 and 9, at maximal effective dose; for Long Term Survivors: 60 days
Description: The animals used were BDF1 mice, all of the same sex, weighing a minimum of 18 g. and all within a 4 g. weight range. There were 6 animals per test group. […] The test compounds were administered intraperitoneally on days 1, 5 and 9 at various doses. The animals were weighed and survivors were recorded on a regular basis for 60 days. The median survival time and the ratio of survival time for treated (T)/control (C) animals were calculated. […] The criterion for efficacy is T/C×100≥125%.

[7] = L1210/0, protocol of Example 14, Tables VII and VIII, 4320 min
[8] = Tables X and XI, days 1, 5 and 9, at maximal effective dose, alive 60 days after tumor inoculation
[9] = Tables X and XI, i.p. on days 1, 5 and 9, at maximal effective dose

Row | Compound | % T/C ([2]; single i.p., 25 mg/kg) [%] | % T/C ([2]; single i.p., 50 mg/kg) | ID50 L1210/DDP [4] [µg/mL] | ID50 [3] [µg/mL] | ID50 L1210/PDD [4] [µg/mL] | ID50 L1210/0 [3, 7] [µg/mL] | Long Term Survivors [1, 8] | Maximal Effective Dose ([1]; Tables X and XI) [mg/kg] | % T/C [1, 9] | Maximal Effective Dose [6] [mg/kg] | % T/C [6] [%] | Long Term Survivors [6] | further results
1 | NC1CCCCC1N.O=C1OC(C(O)CO)C([O-])=C1O.O=C1OC(C(O)CO)C([O-])=C1O.[Pt+2] (mixture of isomers) [Compound 7, cis-bis-isoascorbato(DACH)Pt(II).3H2 O] | 132 | 136% | 3.8 | – | – | – | – | – | – | – | – | – | % T/C ([1]; 12.5 mg/kg, days 1,5,9): 151%; % T/C ([1]; 25 mg/kg, days 1,5,9): 179%; % T/C ([1]; 50 mg/kg, days 1,5,9): 212%; % T/C ([2]; single i.p., 100 mg/kg): 196%; animals died of apparent drug toxicity ([2]; single i.p., 100 mg/kg): 2/6; Long Term Survivors ([2]; single i.p., 100 mg/kg, alive 60 days after inoculation): 1/6; ID50 ([3]; 4320 min): 4.1 µg/mL
2 | N[C@@H]1CCCC[C@H]1N.O=C1O[C@H]([C@@H](O)CO)C([O-])=C1O.O=C1O[C@H]([C@@H](O)CO)C([O-])=C1O.[Pt+2] [Compound 4, cis-bis-ascorbato(trans-R,R--DACH)Pt(II).3H2 O] | 128 | 184% | – | 1.9 | 0.4 | – | – | – | – | – | – | – | % T/C ([1]; 25 mg/kg, days 1,5,9): 218%; % T/C ([1]; 50 mg/kg, days 1,5,9): 144%; Long Term Survivors (LTS) ([2]; single i.p., 50 mg/kg, alive 60 days after inoculation): 1/6
3 | N[C@H]1CCCC[C@@H]1N.O=C1O[C@H]([C@@H](O)CO)C([O-])=C1O.O=C1O[C@H]([C@@H](O)CO)C([O-])=C1O.[Pt+2] [Compound 5, cis-bis-ascorbato(trans-S,S--DACH)Pt(II).2H2 O] | 136 | Toxic | – | 4.4 | 2.3 | – | – | – | – | – | – | – | DEATHS/TREATED ([5]; 60 mg/kg): 0/6; DEATHS/TREATED ([5]; 80 mg/kg): 2/6; DEATHS/TREATED ([5]; 100 mg/kg): 5/6; DEATHS/TREATED ([5]; 125 mg/kg): 6/6; DEATHS/TREATED ([5]; 160 mg/kg): 5/6; Calculated LD10 [5]: 70 mg/kg; Calculated LD50 [5]: 90 mg/kg; Calculated LD90 [5]: 125 mg/kg
4 | NC1CCCCC1N.O=C1O[C@H]([C@@H](O)C(=O)[O-])[C@H](O)[C@H]1O.O=C1O[C@H]([C@@H](O)C(=O)[O-])[C@H](O)[C@H]1O.[Pt+2] [Compound 9, cis-bis-D-saccharato-1,4-lactone(DACH)Pt(II)] | 138 | 156% | – | 3.0 | 0.6 | – | – | – | – | – | – | – | % T/C ([2]; single i.p., 12.5 mg/kg): 127%; % T/C ([2]; single i.p., 100 mg/kg): Toxic; DEATHS/TREATED ([5]; 85 mg/kg): 0/6; DEATHS/TREATED ([5]; 100 mg/kg): 0/6; DEATHS/TREATED ([5]; 125 mg/kg): 3/6; DEATHS/TREATED ([5]; 158 mg/kg): 5/6; DEATHS/TREATED ([5]; 200 mg/kg): 4/6; Calculated LD10 [5]: 100 mg/kg; Calculated LD50 [5]: 140 mg/kg; Calculated LD90 [5]: 185 mg/kg
5 | NC1CCCCC1N.O=C([O-])C1CCCN1.O=C([O-])C1CCCN1.[Pt+2] [Compound 16, cis-bis-L-prolinato(DACH)Pt(II)] | 165 | 165% | 2.5 | 4.0 | – | – | – | – | – | – | – | – | % T/C ([2]; single i.p., 12.5 mg/kg): 144%; % T/C ([2]; single i.p., 100 mg/kg): 162%; animals died of apparent drug toxicity ([2]; single i.p., 100 mg/kg): 1 animals
6 | NC(=O)CN(CC(=O)[O-])CC(=O)[O-].NC1CCCCC1N.[Pt+2] [Compound 42, N--(2-Acetamido)-iminodiacetato(DACH)Pt(II).1/2H2 O] | – | – | 1.8 | 0.7 | – | 3.0 | – | – | – | – | – | – | –
7 | N.N.[Cl][Pt][Cl] [DDP, diamminedichloroplatinum II, reference compound] | – | – | – | – | 5.5 | – | 1/6 | 5 | 210% and 220% | 5 | 172 | 1/6 | Maximal Effective Dose ([2]; Table IX, single i.p. injection): 9 mg/kg; % T/C ([2]; Table IX, single i.p., at maximal effective dose): 150%; ID50 L1210/0 ([3]; L1210/0, Example 15 table, 4320 min): 0.1 µg/mL
8 | CN(CC(=O)[O-])CC(=O)[O-].N[C@@H]1CCCC[C@H]1N.[Pt+2] [Identifier No. 11a, mono-N--methyliminodiacetato] | – | – | 1.9 | – | – | 0.8 | 6/6 | 6.25 | 700% | 25 | 210 | 2/6 | –
9 | N[C@@H]1CCCC[C@H]1N.O=C([O-])CN(CCO)CC(=O)[O-].[Pt+2] [Identifier No. 12a, mono-N--hydroxyethyliminodiacetato] | – | – | 1.8 | – | – | 1.4 | 2/6 | 6.25 | 384% | 25 | 265 | 4/6 | –
10 | cis-bis-D-monosaccharato(DACH)Pt(II).3H2 O [Compound 8] | 129 | 156% | – | 2.8 | 0.9 | – | – | – | – | – | – | – | % T/C ([1]; 25 mg/kg, days 1,5,9): 206%; % T/C ([1]; 50 mg/kg, days 1,5,9): 225%; Long Term Survivors ([1]; 50 mg/kg, days 1,5,9): 1/6; % T/C ([2]; single i.p., 12.5 mg/kg): 120%; % T/C ([2]; single i.p., 100 mg/kg): 151%; % T/C ([2]; single i.p., 200 mg/kg): Toxic; DEATHS/TREATED ([5]; 100 mg/kg): 1/6; DEATHS/TREATED ([5]; 125 mg/kg): 1/6; DEATHS/TREATED ([5]; 158 mg/kg): 4/6; DEATHS/TREATED ([5]; 200 mg/kg): 3/6; DEATHS/TREATED ([5]; 250 mg/kg): 6/6; Calculated LD10 [5]: 115 mg/kg; Calculated LD50 [5]: 155 mg/kg; Calculated LD90 [5]: 220 mg/kg
11 | furanedicarboxylato(DACH)Pt(II) [Compound 19] | 136 | Toxic | 0.9 | 1.0 | – | – | – | – | – | – | – | – | % T/C ([2]; single i.p., 6.25 mg/kg): 143%; % T/C ([2]; single i.p., 12.5 mg/kg): 136%
12 | isocitratomonoethylester(DACH)Pt(II).1.5H2 O [Compound 21] | – | – | 1.9 | 2.0 | – | – | – | – | – | – | – | – | –
13 | mono-N--benzyliminodiacetato [Identifier No. 15a] | – | – | 2.4 | – | – | 1.0 | 4/6 | 6.25 | 620% | 12.5 | 252 | 3/6 | –
14 | mono-N--phenyliminodiacetato [Identifier No. 14a] | – | – | 0.6 | – | – | 0.7 | 4/6 | 6.25 | 578% | 25 | 160 | 3/6 | –
